Assay results as given in US20160039936A1, “FIBROBLAST GROWTH FACTOR RECEPTOR INHIBITION FOR THE TREATMENT OF DISEASE” (UNIVERSITY OF MIAMI, priority 2011, published 2016).

What was measured:
FGFR = settings: Hagel M et al 2015; cited from earlier work
isolated NRVM = test: Cross-sectional area (hypertrophy) of isolated NRVM with receptor antagonists (Example 4); assay type: cell-based, rat; settings: NRVM 48 h, PD173074 10 nM, AZD4547 5 nM, anti-FGFR4 10 μg/ml
Experimental: NRVM were isolated using a standard isolation system (Worthington Biochemical Corporation) (Faul et al., 2011). Hearts from 1-2 day old Sprague Dawley rats were harvested, minced in calcium-and magnesium-free Hank's Balanced Salt Solution (HBSS), and the tissue digested with 50 μg/ml trypsin at 4° C. for 20-24 hours. Soybean trypsin inhibitor in HBSS was added, and the tissue was further digested with collagenase (in Leibovitz L-15 medium) under slow rotation (15 rpm) at 37° C. for 45 minutes. Cells were released by triturating the suspension 20 times with a standard 10 ml plastic serological pipette and filtering it twice through a cell strainer (70 μm, BD Falcon). Cells were incubated at room temperature for 20 minutes and spun at 100 g for 5 minutes. The cell pellet was resuspended in plating medium [Dulbecco's Modified Eagle Medium (DMEM; Cellgro) with 17% Media 199 (Invitrogen), 15% fetal bovine serum (FBS; Invitrogen) and 1% penicillin/streptomycin solution (P/S; Invitrogen)]. Cells were counted using a hemocytometer.
Cells were plated on glass and plastic surfaces, which were coated with laminin (Invitrogen; 10 μg/ml in PBS) at room temperature for 1 hour prior to plating. For immunofluorescence analysis, 3×10^5 cells were seeded per well on glass coverslips in 24-well plates. For Western blot or qPCR analyses of total extracts, 1×10^6 cells were seeded per well in 6-well plates, and for immunoprecipitation assays, 5×10^6 cells were seeded in 10 cm-culture dishes. Cells were left undisturbed in plating medium at 37° C. for 72 hours and then cultured in maintenance medium (DMEM with 20% Media 199, 1% insulin-transferrin-sodium selenite solution [ITS; Sigma-Aldrich] and 1% P/S) in the presence of 100 μM 5-bromo-2′-deoxyuridine (BrdU; Sigam-Aldrich). After 4 days, isolated cardiac myocytes were cultured in BrdU-containing maintenance medium in the presence of recombinant murine FGF23 or FGF2 (both at 25 ng/ml) for different time points.
Cultured cells were fixed in 2% PFA (in 5 mg/ml sucrose) for 5 minutes and permeabilized in 1% Triton X-100 (in PBS) for 10 minutes. We analyzed hypertrophic growth of isolated NRVM and NMVM on laminin-coated glass coverslips after 48 hours of treatment with growth factors. For FGFR4 expression and localization analyses, untreated NMVM from wild-type and FGFR4^−/− mice were immunolabeled. The mouse monoclonal antibody against sarcomeric α-actinin (EA-53; Sigma-Aldrich) was used at 1:1,000, and rabbit polyclonal anti-FGFR4 (C-16; Santa Cruz) at 1:50. Cy3-conjugated goat-anti mouse and Alexa488-conjugated goat-anti rabbit (Jackson Immuno Research) were used as secondary antibodies at 1:300. To visualize nuclei, fixed cells were incubated with 4′,6-diamidino-2-phenylindole (DAPI; 400 ng/ml in PBS) for 10 minutes. Immunofluorescence images were taken on a Leica TCS-SP5 confocal microscope with a 63× oil objective.
Myocyte cross-sectional area was measured based on α-actinin-positive staining using Leica AF6000 fluorescence software. To assess the signaling pathways involved in FGF23- and FGF2-mediated hypertrophy, we analyzed the morphometry of plated cells that were pre-treated with specific inhibitors for 60 minutes prior to the addition of the FGFs at 25 ng/ml (NRVMs) or at 100 ng/ml (NMVMs). The following inhibitors and concentrations were used: pan-FGFR, PD173074 (Sigma-Aldrich) at 10 nM; FGFR1-3, AZD4547 (ChemieTek) at 5 nM; and FGFR4 blocking antibody (human monoclonal, U3-11; U3Pharma) at 10 μg/ml.

C=CC(=O)Nc1cccc(C)c1Nc1ncc2cc(-c3c(Cl)c(OC)cc(OC)c3Cl)ccc2n1 [BLU9931]
FGFR4 inhibition (FGFR): very potent and selective

AZD4547
FGF2-induced hypertrophy (cross-sectional area) with receptor antagonist (isolated NRVM; FGF2 25 ng/ml): prevented
FGF23-induced hypertrophy (cross-sectional area) with receptor antagonist (isolated NRVM; FGF23 25 ng/ml): but not FGF23-induced hypertrophy
